Molecular target: Plasma kallikrein (Homo sapiens, UniProt P03952)
Experiment: Evaluation of the Inhibition of PKK Using an Endpoint Assay
Experimental: Subsequently, PPACK II (Calbiochem) was added as a stop solution to achieve a final concentration of 1 μM and fluorescence was measured using an Envision Reader (PerkinElmer) with the wavelength excitation setting of 355 nm and the wavelength emission setting of 460 nm.

Sequence of Plasma kallikrein (P03952 20-390 limits assumed): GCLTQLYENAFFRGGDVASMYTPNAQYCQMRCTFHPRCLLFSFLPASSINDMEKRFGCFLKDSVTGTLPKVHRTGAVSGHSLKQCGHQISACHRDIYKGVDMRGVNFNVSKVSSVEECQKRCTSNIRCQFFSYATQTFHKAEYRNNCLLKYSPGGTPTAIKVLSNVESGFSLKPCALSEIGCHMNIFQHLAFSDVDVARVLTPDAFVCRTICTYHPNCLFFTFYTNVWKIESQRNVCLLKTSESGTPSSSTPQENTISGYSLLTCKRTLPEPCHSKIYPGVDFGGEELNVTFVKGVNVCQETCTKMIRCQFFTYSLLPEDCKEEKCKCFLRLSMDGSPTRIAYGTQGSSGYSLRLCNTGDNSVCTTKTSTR
Sequence of Plasma kallikrein (P03952 391-638 limits assumed): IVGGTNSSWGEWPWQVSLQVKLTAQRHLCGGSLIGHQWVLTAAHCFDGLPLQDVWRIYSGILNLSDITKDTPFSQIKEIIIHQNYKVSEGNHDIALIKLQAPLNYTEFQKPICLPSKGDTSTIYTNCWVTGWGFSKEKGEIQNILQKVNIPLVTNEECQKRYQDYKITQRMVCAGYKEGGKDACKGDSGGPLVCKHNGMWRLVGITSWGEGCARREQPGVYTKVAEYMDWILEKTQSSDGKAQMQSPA

IC50: 38 nM
Compound: Cc1nc(N2C[C@@H]3[C@@H](N)[C@@H]3C2)ccc1Cn1cc(C(=O)NCc2cc(Cl)ccc2-n2cnnn2)cn1 [US12091399, Example 58]
